In one assay the target is CSNK1D (Homo sapiens (Human), UniProt P48730). Kind of assay: CSNK1D Assay (ADP-Glo, 1 μM ATP). Format: biochemical. The conditions noted are these: median, read-out: CSNK1D IC50 [mol/l] (median). The procedure:
CSNK1D-inhibitory activity of compounds of the present invention in presence of 1 μM adenosine-tri-phosphate (ATP) was quantified employing the CSNK1 D assay as described in the following paragraphs. In essence, the enzyme activity is measured by quantification of the adenosine-di-phosphate (ADP), which is generated as a co-product of the enzyme reaction, via the “ADP-Glo™ Kinase Assay” kit from the company Promega. This detection system works as follows: In a first step the ATP not consumed in the kinase reaction is quantitatively converted to cAMP employing an adenylate cyclase (“ADP-Glo-reagent”), then the adenylate cyclase is stopped and the ADP generated in the kinase reaction converted to ATP which generates in a luciferase-based reaction a glow-luminescence signal (“Kinase Detection Reagent”).
Recombinant fusion protein of N-terminal Glutathion-S-Transferase (GST) and full-length human CSNK1D, expressed by baculovirus infected insect cells and purified via Glutathion affinity chromatography, was purchased from Life Technologies (product no. PV3665) and used as enzyme. As substrate for the kinase reaction the biotinylated peptide Btn-Ahx-[…] (C-terminus in amide form) was used which can be purchased e.g. from the company Biosyntan (Berlin-Buch, Germany).
For the assay 50 nl of a 100 fold concentrated solution of the test compound in DMSO was pipetted into a white 1536-well microtiter plate (Greiner Bio-One, Frickenhausen, Germany), 2 μL of a solution of CSNK1D in aqueous assay buffer [50 mM HEPES pH 7.5, 10% (v/v) glycerol, 10 mM MgCl2, 50 mM NaCl, 1 mM dithiothreitol, 0.01% (w/v) bovine serum albumin, 0.01% (v/v) Triton X-100] were added and the mixture was incubated for 15 min at 22° C. to allow pre-binding of the test compounds to the enzyme before the start of the kinase reaction. […] The concentration of CSNK1D was adjusted depending of the activity of the enzyme lot and was chosen appropriate to have the assay in the linear range, a typical concentration is about 0.5 ng/μL. The reaction was stopped by the addition of 2.5 μL of “ADP-Glo-reagent” (1:1.5 fold diluted with water) and the resulting mixture was incubated at 22° C. for 1 h to convert the ATP not consumed in the kinase reaction completely […]. Subsequently 2.5 μL of the “kinase detection reagent” (1.2 fold more concentrated than recommended by the producer) were added, the resulting mixture was incubated at 22° C. for 1 h and then the luminescence measured with a suitable measurement instrument (e.g. Viewlux™ from Perkin-Elmer). The amount of emitted light was taken as a measure for the amount of ADP generated and thereby for the activity of the CSNK1D.

For a further assay, the target named is CSNK1A1 (Homo sapiens (Human), UniProt P48729). Kind of assay: CSNK1A1 Assay 2 (ADP-Glo, 1 μM ATP, substrate biotin-Ahx-KRRRAL-pS-VASLPGL). The assay is classed as biochemical. The conditions noted are these: median, read-out: CSNK1A1 Assay 2 IC50 [mol/l] (median). The procedure:
CSNK1A1-inhibitory activity of compounds of the present invention in presence of 1 μM adenosine-tri-phosphate (ATP) was quantified employing the CSNK1A1 assay as described in the following paragraphs. In essence, the enzyme activity is measured by quantification of the adenosine-di-phosphate (ADP), which is generated as a co-product of the enzyme reaction, via the “ADP-Glo™ Kinase Assay” kit from the company Promega. This detection system works as follows: In a first step the ATP not consumed in the kinase reaction is quantitatively converted to cAMP employing an adenylate cyclase (“ADP-Glo-reagent”), then the adenylate cyclase is stopped and the ADP generated in the kinase reaction converted to ATP which generates in a luciferase-based reaction a glow-luminescence signal (“Kinase Detection Reagent”).
Recombinant fusion protein of N-terminal Glutathion-S-Transferase (GST) and full-length human CSNK1A1, expressed by baculovirus infected insect cells and purified via Glutathion affinity chromatography, was purchased from Life Technologies (product no. PV4174) and used as enzyme. As substrate for the kinase reaction the biotinylated peptide biotin-Ahx-KRRRAL-pS-VASLPGL (C-terminus in amide form) was used which can be purchased e.g. from the company Biosyntan (Berlin-Buch, Germany).
For the assay 50 nl of a 100 fold concentrated solution of the test compound in DMSO was pipetted into a white 1536-well microtiter plate (Greiner Bio-One, Frickenhausen, Germany), 2 μL of a solution of CSNK1A1 in aqueous assay buffer [50 mM HEPES pH 7.5, 10% (v/v) glycerol, 10 mM MgCl2, 50 mM NaCl, 1 mM dithiothreitol, 0.01% (w/v) bovine serum albumin, 0.01% (v/v) Triton X-100] were added and the mixture was incubated for 15 min at 22° C. to allow pre-binding of the test compounds to the enzyme before the start of the kinase reaction. […] The concentration of CSNK1A1 was adjusted depending of the activity of the enzyme lot and was chosen appropriate to have the assay in the linear range, a typical concentrations are about 0.0375 ng/μL. The reaction was stopped by the addition of 2.5 μL of “ADP-Glo-reagent” (1:1.5 fold diluted with water) and the resulting mixture was incubated at 22° C. for 1 h to convert the ATP not consumed in the kinase reaction completely […]. Subsequently 2.5 μL of the “kinase detection reagent” (1.2 fold more concentrated than recommended by the producer) were added, the resulting mixture was incubated at 22° C. for 1 h and then the luminescence measured with a suitable measurement instrument (e.g. Viewlux™ from Perkin-Elmer). The amount of emitted light was taken as a measure for the amount of ADP generated and thereby for the activity of the CSNK1A1.
(ADP-Glo first removes unused ATP, then detects ADP through luciferase.)

CSNK1A1, sequence (P48729 whole entry): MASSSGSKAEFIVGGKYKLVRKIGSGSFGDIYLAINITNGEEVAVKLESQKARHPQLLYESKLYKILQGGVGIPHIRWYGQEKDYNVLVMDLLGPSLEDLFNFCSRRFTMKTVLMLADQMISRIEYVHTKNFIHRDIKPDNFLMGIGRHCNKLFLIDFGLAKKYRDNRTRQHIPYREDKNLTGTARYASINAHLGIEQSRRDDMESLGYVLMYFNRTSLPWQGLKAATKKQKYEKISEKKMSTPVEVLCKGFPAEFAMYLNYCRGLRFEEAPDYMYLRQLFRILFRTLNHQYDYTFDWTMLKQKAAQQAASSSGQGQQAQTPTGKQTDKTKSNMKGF
CSNK1D, sequence (P48730 whole entry): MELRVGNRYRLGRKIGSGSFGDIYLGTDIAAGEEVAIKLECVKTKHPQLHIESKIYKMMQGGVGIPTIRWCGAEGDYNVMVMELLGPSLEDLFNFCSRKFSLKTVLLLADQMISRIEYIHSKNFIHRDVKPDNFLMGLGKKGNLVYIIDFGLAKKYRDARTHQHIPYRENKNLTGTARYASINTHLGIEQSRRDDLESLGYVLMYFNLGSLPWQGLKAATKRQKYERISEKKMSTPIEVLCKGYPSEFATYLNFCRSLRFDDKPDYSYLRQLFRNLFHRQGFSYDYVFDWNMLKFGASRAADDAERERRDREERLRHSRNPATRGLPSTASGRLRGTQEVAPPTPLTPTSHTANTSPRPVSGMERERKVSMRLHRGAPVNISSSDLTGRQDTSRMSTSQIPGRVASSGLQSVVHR

Regarding `O=C(Cc1ccc(F)cc1)Nc1cc(-c2[nH]c3cccnc3c2-c2ncccn2)ccn1` [Example 16, 2-(4-fluorophenyl)-N-{4-[3-(pyrimidin-2-yl)-1H-pyrrolo[3,2-b]pyridin-2-yl]pyridin-2-yl}acetamide], the results for the IC50 at CSNK1D and on CSNK1A1 were 9.02 nM and 4.77 nM, respectively.
`O=C(Cc1ccc(F)cc1)Nc1cc(-c2[nH]c3cccnc3c2-c2ccccc2)ccn1` [Example 14, 2-(4-fluorophenyl)-N-[4-(3-phenyl-1H-pyrrolo[3,2-b]pyridin-2-yl)pyridin-2-yl]acetamide]: the IC50 is 2.64 nM at CSNK1D and 1.04 nM on CSNK1A1.
With `O=C(Cc1ccc(F)cc1)Nc1cc(-c2[nH]c3c(C4CC4)ccnc3c2-c2ccccn2)ccn1` [Example 35, N-{4-[7-cyclopropyl-3-(pyridin-2-yl)-1H-pyrrolo[3,2-b]pyridin-2-yl]pyridin-2-yl}-2-(4-fluorophenyl)acetamide], the IC50 is 4.19 nM at CSNK1D and 2.79 nM at CSNK1A1.
Turning to `COCC(C(=O)Nc1cc(-c2[nH]c3cccnc3c2-c2ccccn2)ccn1)c1ccc(F)cc1` (racemic) [Example 43, (2RS)-2-(4-fluorophenyl)-3-methoxy-N-(4-(3-(pyridin-2-yl)-1H-pyrrolo[3,2-b]pyridin-2-yl)pyridin-2-yl)propanamide], the IC50 is 6.46 nM at CSNK1D and 3.51 nM on CSNK1A1.
For `COCCC(C(=O)Nc1cc(-c2[nH]c3cccnc3c2-c2ccccn2)ccn1)c1ccc(F)cc1` (racemic) [Example 44], the figures for the IC50 at CSNK1D and at CSNK1A1 were 9.84 nM and 4.97 nM, respectively.
For `CC(C(=O)Nc1cc(-c2[nH]c3ccc(F)nc3c2-c2ccccn2)ccn1)c1ccc(F)cc1` (racemic) [Example 1, 2-(4-fluorophenyl)-N-{4-[5-fluoro-3-(pyridin-2-yl)-1H-pyrrolo[3,2-b]pyridin-2-yl]pyridin-2-yl}propanamide], the IC50 at CSNK1D worked out at 4.58 nM; on CSNK1A1, 1.66 nM.
As to `Cc1cc2[nH]c(-c3ccnc(NC(=O)Cc4ccc(F)cc4)c3)c(-c3ccccn3)c2nc1F` [Example 27, N-{4-[5-fluoro-6-methyl-3-(pyridin-2-yl)-1H-pyrrolo[3,2-b]pyridin-2-yl]pyridin-2-yl}-2-(4-fluorophenyl)acetamide], the figures for the IC50 on CSNK1D and on CSNK1A1 were 5.11 nM and 1.6 nM, respectively.
As for `CN1CCC(N(C)c2ccnc3c(-c4ccccn4)c(-c4ccnc(NC(=O)Cc5ccc(F)cc5)c4)[nH]c23)CC1` [Example 39, 2-(4-fluorophenyl)-N-(4-{7-[methyl(1-methylpiperidin-4-yl)amino]-3-(pyridin-2-yl)-1H-pyrrolo[3,2-b]pyridin-2-yl}pyridin-2-yl)acetamide], the IC50 at CSNK1D is 13.6 nM; at CSNK1A1, 3.49 nM.
As for `CC(C(=O)Nc1cc(-c2[nH]c3cccnc3c2-c2ccccn2)ccn1)c1ccc(F)cc1` (racemic) [Example 6, 2-(4-fluorophenyl)-N-{4-[3-(pyridin-2-yl)-1H-pyrrolo[3,2-b]pyridin-2-yl]pyridin-2-yl}propanamide], the IC50 worked out at 3.37 nM on CSNK1D and 1.73 nM at CSNK1A1.
The corresponding values for `C=Cc1ccnc2c(-c3ccccn3)c(-c3ccnc(NC(=O)Cc4ccc(F)cc4)c3)[nH]c12` [Example 33, N-{4-[7-ethenyl-3-(pyridin-2-yl)-1H-pyrrolo[3,2-b]pyridin-2-yl]pyridin-2-yl}-2-(4-fluorophenyl)acetamide] are 9.16 nM and 3.97 nM.
`CC(C(=O)Nc1cc(-c2[nH]c3cc(Cl)cnc3c2-c2ccccn2)ccn1)c1ccc(F)cc1` (stereo not drawn) [Example 52, N-{4-[6-chloro-3-(pyridin-2-yl)-1H-pyrrolo[3,2-b]pyridin-2-yl]pyridin-2-yl}-2-(4-fluorophenyl)propanamide]: the IC50 at CSNK1D was found to be 20.5 nM; at CSNK1A1, 6.26 nM.
In the same order, the values of `COc1ccc2[nH]c(-c3ccnc(NC(=O)Cc4ccc(F)cc4)c3)c(-c3ccccn3)c2n1` [Example 32, 2-(4-fluorophenyl)-N-{4-[5-methoxy-3-(pyridin-2-yl)-1H-pyrrolo[3,2-b]pyridin-2-yl]pyridin-2-yl}acetamide] are 7.52 nM and 2.5 nM.

The values are drawn from US20230339939A1 (Bayer Aktiengesellschaft, priority 2020, published 2023).
